Assay results published in US5094857A, “Treatment of acne or androgenetic alopecia by topical administration of ethisterone” (priority 1987, dated 1992).

Legend:
gestogen receptors = molecular target: T1, gestogen receptors (Ovis aries, UniProt A0ACI6RU96); test: Binding to gestogen receptors in a sheep uterus (FIG. 2)
T1 sequence (A0ACI6RU96 1-911): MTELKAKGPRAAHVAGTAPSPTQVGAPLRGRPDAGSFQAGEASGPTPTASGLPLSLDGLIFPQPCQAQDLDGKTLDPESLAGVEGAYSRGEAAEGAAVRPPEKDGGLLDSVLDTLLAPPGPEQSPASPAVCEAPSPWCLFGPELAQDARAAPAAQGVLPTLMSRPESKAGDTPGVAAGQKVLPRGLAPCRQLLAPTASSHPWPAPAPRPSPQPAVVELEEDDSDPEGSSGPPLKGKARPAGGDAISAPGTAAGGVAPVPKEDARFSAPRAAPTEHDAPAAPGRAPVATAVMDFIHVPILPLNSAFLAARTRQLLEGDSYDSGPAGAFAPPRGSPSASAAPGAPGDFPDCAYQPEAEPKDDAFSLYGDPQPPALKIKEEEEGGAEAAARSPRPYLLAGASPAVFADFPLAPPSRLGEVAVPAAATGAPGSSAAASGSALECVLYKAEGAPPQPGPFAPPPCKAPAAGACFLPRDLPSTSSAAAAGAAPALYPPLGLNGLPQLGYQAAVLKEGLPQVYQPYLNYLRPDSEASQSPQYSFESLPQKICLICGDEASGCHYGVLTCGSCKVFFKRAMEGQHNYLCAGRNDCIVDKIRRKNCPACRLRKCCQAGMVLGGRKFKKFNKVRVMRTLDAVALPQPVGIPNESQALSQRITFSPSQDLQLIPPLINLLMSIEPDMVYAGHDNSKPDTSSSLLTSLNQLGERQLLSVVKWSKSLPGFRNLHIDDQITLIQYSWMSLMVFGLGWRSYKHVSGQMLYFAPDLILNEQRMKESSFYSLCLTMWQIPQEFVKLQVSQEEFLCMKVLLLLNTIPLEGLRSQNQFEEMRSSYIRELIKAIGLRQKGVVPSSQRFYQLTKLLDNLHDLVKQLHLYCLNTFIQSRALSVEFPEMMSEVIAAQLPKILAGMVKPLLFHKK
Text: These experiments relating to the competitive binding of different hormanal substances can only describe certain aspects of the binding kinetics, but not all aspects of the pharmacokinetics. It is thus necessary to test the biological effects of steroid hormones by in vivo methods.

[1] = molecular target: T2, androgen receptor preparations of sebaceous glands (Mesocricetus auratus, UniProt A0A1U7QL32); test: Competitive binding analysis (displacement of tritium-marked R 1881); design: species or system Syrian hamster; details: for in vitro affinity at 50% blocking (rank order): displacement of 8 nM tritium-marked R 1881, FIG. 1; for affinity (RBA) for the androgen receptors, in words: displacement of tritium-marked R 1881
T2 construct: [3H]R1881 displacement with excess triamcinolone acetate
T2 sequence (A0A1U7QL32 1-900): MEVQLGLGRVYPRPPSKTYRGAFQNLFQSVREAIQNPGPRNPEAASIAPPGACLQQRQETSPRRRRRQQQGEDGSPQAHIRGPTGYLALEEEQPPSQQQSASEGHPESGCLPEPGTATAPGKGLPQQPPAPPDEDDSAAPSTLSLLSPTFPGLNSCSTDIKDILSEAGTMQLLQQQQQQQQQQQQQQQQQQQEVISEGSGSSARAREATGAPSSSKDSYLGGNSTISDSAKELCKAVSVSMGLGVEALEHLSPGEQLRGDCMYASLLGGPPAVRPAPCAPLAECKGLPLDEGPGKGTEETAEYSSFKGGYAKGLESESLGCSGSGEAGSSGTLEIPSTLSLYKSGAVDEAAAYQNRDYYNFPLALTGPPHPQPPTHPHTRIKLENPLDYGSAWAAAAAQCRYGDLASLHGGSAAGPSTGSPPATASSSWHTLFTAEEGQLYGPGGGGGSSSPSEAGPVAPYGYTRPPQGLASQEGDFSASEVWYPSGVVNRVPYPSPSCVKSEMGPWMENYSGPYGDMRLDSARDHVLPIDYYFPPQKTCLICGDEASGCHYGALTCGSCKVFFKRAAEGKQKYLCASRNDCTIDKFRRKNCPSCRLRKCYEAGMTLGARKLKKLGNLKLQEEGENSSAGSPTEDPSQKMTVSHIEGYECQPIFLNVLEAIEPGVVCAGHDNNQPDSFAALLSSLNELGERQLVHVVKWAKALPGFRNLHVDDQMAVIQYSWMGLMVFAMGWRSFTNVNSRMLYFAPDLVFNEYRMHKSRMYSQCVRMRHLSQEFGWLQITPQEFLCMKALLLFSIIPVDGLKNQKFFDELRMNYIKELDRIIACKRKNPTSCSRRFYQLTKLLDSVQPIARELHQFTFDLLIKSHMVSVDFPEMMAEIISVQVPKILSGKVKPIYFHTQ
Text: The standardisation basis in competitive binding analysis is the concentration of the competitor which, can displace 50% of a radioactively labeled reference substance from the receptor. This is conditioned upon the assumption that a relative binding efficiency (RPA) is proof of a high […] in the test material.
The comparison of the in vivo sebum suppression with RBA to the androgen receptor in vitro, should give the key to the answer of whether the substance itself or metabolites thereof, are responsible for the activity.
For the competitive study the web material of five ear shells was gathered. After homogenization in buffer A (10 mM-Tris-HCl-pH 7.4; 1.5 mM EDTA; 5 mM monothiogylcerine) cytosol was obtained as a supernate after ultracentrification at 120×10^3 g for thirty minutes at 4° C. The protein content was adjusted to between 1 to 5 mg/ml with a buffer A.
After a reaction time of 12 hours at 4° C. to achieve equilibrium, the unbound steroid hormones were removed from the reaction mixture by means of dextrancoated activated charcoal suspension (0.5% activated charcoal and 0.05% detran in […] Tris-HCl-buffer; pH 7.4). An aliquot of the supernate after centrifugation was measured in a fluid scintillation counter.

androgenetic alopezia = test: Hair growth material on bald spots in androgenetic alopezia (Example VI); assay type: in vivo; details: for hair growth on previously bald spot: 2% solution in 50% ethanol and 50% Tween 20, rubbed twice daily, 1 mg per cm^2, four weeks; for undesirable side effects: topical, twice daily, 2% solution
Experimental: A 2% solution of nor-ethisterone in 50% ethanol and 50% Tween 20, was utilized for the assistance in hair growth by androgenetic alopezia. The bald spots were rubbed twice daily with a sufficient amount of hair growth material to provide a concentration of 1 mg per cm^2 nor-ethisterone through the skin barrier to the receptor site.

[2] = test system: skin upper surface lipids; test: Human studies: skin surface lipid content after topical ethisterone lotion; assay type: in vivo
Experimental: A 2% ethisterone formulation was prepared in accordance with Example I. Five male and five female human test subjects took part in the experiment who were treated on their left foreheads with the ethisterone lotion. The subjects applied the lotion twice a day at a concentration of approximately 0.1 mg per cm^2 of ethisterone applied to the receptors.
The lipid content of the upper skin surface of both left and right forehead portions were measured prior to the onset of therepy (0 control), in the second and the fourth weeks of therapy.
Initially the replacement sum was determined. The skin was first cleaned with cigarette paper dipped in acetone and stroked six to eight times over the test area. After sixty minutes the skin lipids were removed from the skin portion of the following manner. Cigarette paper was placed by means of tweezers on the segment to be measured and on the cigarette paper was placed a mass of 280 grams having a surface area of 5 cm^2. Thereafter, the paper was eluted with a mixture comprising 70 parts of acetone and 30 parts of methanol. The thus produced eluate was evaporated to dryness and treated with phosphovanillic acid, thereafter the eluate was evaluated by gas chromatography. Previously, the gas chromatograph had been calibrated with 25 standard skin lipids (mono-di-, triglyceride, cholesterol as well as cholesterol esters, oleic acid esters, having 10 to 18 carbon atoms as well as waxes having up to 28 carbon atoms).
The eluate was also subjected, to thin layer chromomatography. It is noted that generally, speaking the standard substances may be regarded as representative of skin upper surface lipids.

[3] = ethisterone in oil-in-water emulsion applied to the skin (summary statement)

Question: Which “binding affinity to gestogen receptors (comparison)” value (gestogen receptors) does the source give for `CC(=O)[C@H]1CC[C@H]2[C@@H]3CCC4=CC(=O)CC[C@]4(C)[C@H]3CC[C@]12C` [progesterone] here?
Answer: The value was “nor-ethisterone has a higher binding affinity than progesterone and ethisterone”.

Question: Which “in vitro affinity at 50% blocking (rank order)” value [1] does the source give for `CCCC1(O)CCC2C3CCC4CC(=O)CC(C)C4(C)C3CCC21C` (stereo not drawn) [17-alpha-PM, 17-alpha-propyl-mesterolone] here?
Answer: Its value is “R 1881, 17-alpha-PM, ethisterone, CPA, SL and dexamethasone”.

Question: And the “affinity (RBA) for the androgen receptors, in words” value [1]?
Answer: The value was “substantially higher affinity”.

Question: And the “hair growth on previously bald spot” value (androgenetic alopezia)?
Answer: The value was “practically the same result is obtained”.

Question: And the undesirable side effects (androgenetic alopezia)?
Answer: Its undesirable side effects is “no undesirable side effects were noted”.

Question: Which “in vitro affinity at 50% blocking (rank order)” value [1] does the source give for `C[C@@H]1C[C@H]2[C@@H]3CCC4=CC(=O)C=C[C@]4(C)[C@@]3(F)[C@@H](O)C[C@]2(C)[C@@]1(O)C(=O)CO` [dexamethasone] here?
Answer: The value was “R 1881, 17-alpha-PM, ethisterone, CPA, SL and dexamethasone”.

Question: And the “affinity (RBA) for the androgen receptors, in words” value [1]?
Answer: Its value is “may be disregarded”.

Question: What does the source list for `C#C[C@]1(O)CC[C@H]2[C@@H]3CCC4=CC(=O)CC[C@]4(C)[C@H]3CC[C@@]21C` [ethisterone, 17-alpha-hydroxypregen-4-en-20-yn-3-one]?
Answer: in vitro affinity at 50% blocking (rank order) [1]: R 1881, 17-alpha-PM, ethisterone, CPA, SL and dexamethasone; affinity (RBA) for the androgen receptors, in words [1]: satisfactory middle place between 17-alpha-PM and synthetic R 1881; lipid content on treated skin upper surface area less than untreated area ([2]; 2% ethisterone lotion twice a day on left forehead, approx. 0.1 mg per cm^2, four week treatment): 25%; wax content reduced ([2]; 2% ethisterone lotion twice a day on left forehead, four week treatment): 75%; reduction of lipids which comprise waxy substances (C20 to C28) [2, 3]: 75 % by weight; reduction of total lipid content of the skin from the initial value [2, 3]: about 25%; binding affinity to gestogen receptors (comparison) (gestogen receptors): nor-ethisterone has a higher binding affinity than progesterone and ethisterone

Question: `C#C[C@]1(O)CC[C@H]2[C@@H]3CCC4=CC(=O)CC[C@@H]4[C@H]3CC[C@@]21C` [nor-ethisterone, 17-hyroxy-19-norpregn-4-en-20-yn-3-one] was tested. Which “hair growth on previously bald spot” value (androgenetic alopezia) did it give?
Answer: The value was “a hair fuzz is noted on the previously bald spot”.

Question: And the undesirable side effects (androgenetic alopezia)?
Answer: The undesirable side effects was “no undesirable side effects were noted”.

Question: And the “binding affinity to gestogen receptors (comparison)” value (gestogen receptors)?
Answer: Its value is “higher binding affinity than progesterone and ethisterone”.
